Test results taken from PMC6680510, “Benzotriazine Di-Oxide Prodrugs for Exploiting Hypoxia and Low Extracellular pH in Tumors” (Molecules, 2019).
Where “and” joins values, the source holds several entries; their conditions need not be identical. Equal entries are not always repeated. Where two headings read alike, the source gives them in different places.

Assays:
[1] = One-electron reduction potentials by pulse radiolysis; assay type: physicochemical; conditions: pH 7.0, equilibrium with redox indicator shown in square brackets
Experimental: One-electron reduction potentials (E^0′) were determined from the redox equilibria with methylviologen, MV^2+, (E^0′ = […], [34]), dimethyldiquat, V21^2+, (E^0′ = […], [35]), or triquat, TQ^2+, (E^0′ = −548 ± 7 mV [34]). […] Substituting the 3-alkanoic sidechain with the 3-aminoalkanoic sidechain on the BTO 1,4-dioxide lowers the E^0′, as does the addition of the cyclopentane ring. The combined effect is seen for 10a, where the E^0′ value is −565 mV, which is expected to be too low for significant bioreduction under hypoxia.
(§1) Time-resolved optical absorption and kinetic studies were carried out using the University of Auckland’s 4 MeV linear accelerator, which has been previously described. The one-electron reduction potentials of the compounds (A) and couple E^0′(A/A^−), versus normal hydrogen electrode, were determined at pH 7.0 (2.5 mM phosphate) by establishing redox equilibria within 50 μs between three mixtures of one-electron reduced A and the viologen reference compounds, MV^2+, TQ^2+ and V21^2+. The determined equilibrium constants were used to calculate the ΔE values using the Nernst equation, correcting for ionic strength effects, as described in the literature.

[2] = Pulse radiolysis of the radical anion (pKa, decay and oxidation kinetics); assay type: physicochemical
Source text: The free radical chemistry of 7a was investigated by pulse radiolysis and electron paramagnetic resonance (EPR). […] The radical anion decayed slowly under anoxia at pH 7 with mixed kinetics (first-order rate constant of 78 ± 4 s^−1, second-order rate constant of 3.8 ± 0.7 × 10^7 M^−1 s^−1, Figure S3), broadly similar to SN30000 [24]. The second-order rate constant for oxidation of the radical anion of 7a by O2, 5.39 ± 0.40 × 10^6 M^−1 s^−1 (Figure S4), is consistent with the known dependence on E^0′ for BTOs.
as §1
Molecules 2019, 24, x FOR PEER REVIEW 3 of 8
Figure S2. Effect of pH on the change in radical absorption at 490 nm upon one-electron reduction of 7a ([…]) by the CO2.- radical anion following pulse radiolysis (3 Gy in 200 ns) of N2O-saturated solutions containing sodium formate (0.1 M) and buffers (10 mM). Data points, obtained ca. 20 ms […]
Figure S3. […]
dependence on increasing radiation dose (radical concentration) of the reciprocal of the first half-life of decay of the radical anion of 7a measured at 490 nm. […]
Figure S4. Dependence of the first-order rate constant measured at 490 nm for the decay of the radical anion of 7a at pH 7.0, k, on the concentration of O2 in solution following pulse radiolysis (10 Gy in 200 ns). […] The second order rate constant, kO2, calculated from the gradient

SiHa cells [3] = assay: IC50 assay (inhibition of proliferation, 4 h exposure, SRB); conditions: SiHa; for IC50: Homo sapiens, 4 h
Outline: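 Cells exposed to compound for 4 h in titrated medium, then washed and regrown 5 days under standard conditions (oxia, pHe 7.4). Growth read by sulforhodamine B staining; IC50 from 4-parameter logistic regression of duplicate cultures.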

FaDu cells = assay: as above; assay type: cell-based; conditions: for IC50: Homo sapiens, 4 h
[4] = Protein binding by equilibrium dialysis (FBS, culture medium); assay type: in vitro ADME
Experimental: Protein binding of 7a in plasma from NIHIII mice and fetal bovine serum (FBS) assessed
by equilibrium dialysis using a 12-14KDa cut-off dialysis membrane (HTDialysis, Gales Ferry, CT) as
Briefly, 100 µL samples of undiluted plasma,
plasma diluted in PBS, and αMEM with or without FBS containing 7a at 100 μM were dialysed against
100 µL PBS or αMEM (pH 7.4) in an incubator (Innova-42, New Brunswick Scientific, US ) at 37°C
with shaking at 80 rpm for 6 h. Proteins were precipitated with 3 vol of ice-cold MeCN, the

SiHa and SiHa/POR cells = assay: IC50 in SiHa versus SiHa/POR cultures under anoxia; assay type: cell-based; conditions: 4 h under anoxia, pHe 7.4
Experimental: The lack of effect of POR over-expression on the reductive metabolism of the BTO acids in intact cells led us to compare the cytotoxicities of SN30000 (2), 4a, and 7a in SiHa/POR, and the parental line, under anoxia (Figure 6).
Drug exposure was for 4 h under anoxia, at pHe 7.4, with regrowth under aerobic conditions for 5 days before staining with SRB. Values are means and SEM for the two experiments, each with triplicate cultures at each drug concentration. TEXT PRINTED IN THE PICTURE: Cmpd 2: Ratio 6.75 ± 0.20 | Cmpd 4a: Ratio 3.40 ± 0.22 | Cmpd 7a: Ratio 2.67 ± 0.46

[5] = Solubility in AlphaMEM + 5% FBS, pH 7.4; conditions: culture medium (AlphaMEM + 5% FBS), pH 7.4, plasma or biological fluid, thermodynamic from solid
[6] = Measured pKa (potentiometric titration)
[7] = test system: MDCK-II cells with forced expression of BCRP or Pgp; assay: IC50 under anoxia in cells with forced expression of efflux transporters; conditions: MDCK-II cell lines under anoxia, preliminary experiments
Experimental: expression of BCRP or Pgp.
Cells were seeded at 300 cells/well in DMEM with 10% FBS in 96 well plates in an
anaerobic chamber, allowed to attach for 2 h then exposed to drugs for 4 h under anoxia. Cells were
then washed with fresh medium and grown for 5 days under aerobic conditions before staining with
SRB. Values are mean ± SEM from 2 separate experiments.

SiHa cells [8] = assay: Cellular uptake in stirred aerobic single cell suspensions (HPLC, 3H-mannitol correction); conditions: for Observed Ci/Ce ratio: SiHa

Compound: O=C(O)CCc1n[n+]([O-])c2cc3c(cc2[n+]1[O-])CCC3 [Compound 7a, 3-(2-Carboxyethyl)-7,8-dihydro-6H-indeno[5,6-e][1,2,4]triazine 1,4-Dioxide]
- E^0′ one-electron reduction potential [1]: −463 mV and −463 ± 8 [MV^2+, V21^2+] mV
- First-order rate constant of radical anion decay ([2]; anoxia, pH 7): 78 ± 4 s⁻¹
- Second-order rate constant of radical anion decay ([2]; anoxia, pH 7): 3.8 ± 0.7 × 10^7 M^−1 s^−1
- Second-order rate constant for oxidation of the radical anion by O2 ([2]; pH 7.0): 5.39 ± 0.40 × 10^6 M^−1 s^−1
- IC50 (SiHa cells [3]; read-out: Anoxic IC50, SiHa, pHe 6.5, 4 h, anoxic): 428 ± 152 µM
- IC50 (SiHa cells [3]; read-out: Anoxic IC50, SiHa, pHe 7.4, 4 h, anoxic): 864 ± 277 µM
- IC50 (SiHa cells [3]; read-out: Oxic IC50, SiHa, pHe 6.5, 4 h, oxic): 1890 ± 308 µM
- IC50 (SiHa cells [3]; read-out: Oxic IC50, SiHa, pHe 7.4, 4 h, oxic): 3720 ± 830 µM
- TMR (overall TME ratio = oxic IC50 pHe 7.4/anoxic IC50 pHe 6.5) (SiHa cells [3]): 8.7 ± 3.6
- PCR Anoxic (IC50 at pHe 7.4/IC50 at pHe 6.5) (SiHa cells [3]; anoxic): 2.02 ± 0.97
- PCR oxic (IC50 at pHe 7.4/IC50 at pHe 6.5) (SiHa cells [3]; oxic): 1.97 ± 0.55
- ACR (anoxic cytotoxicity ratio = oxic IC50/anoxic IC50) (SiHa cells [3]; pHe 6.5): 4.41 ± 1.73
- ACR (anoxic cytotoxicity ratio = oxic IC50/anoxic IC50) (SiHa cells [3]; pHe 7.4): 4.31 ± 1.58
- TMR (oxic IC50 pHe 7.4/anoxic IC50 pHe 6.5) (FaDu cells): >7.9
- IC50 (FaDu cells; pHe 6.5, 4 h, anoxic, read-out: Anoxic IC50): 885 ± 515 µM
- IC50 (FaDu cells; pHe 6.5, 4 h, oxic, read-out: Oxic IC50): 4910 ± 1600 µM
- IC50 (FaDu cells; pHe 7.4, 4 h, anoxic, read-out: Anoxic IC50): 3260 ± 1070 µM
- IC50 (FaDu cells; pHe 7.4, 4 h, oxic, read-out: Oxic IC50): > 7000 µM
- PCR oxic (IC50 at pHe 7.4/IC50 at pHe 6.5) (FaDu cells; oxic): >1.4
- ACR (oxic IC50/anoxic IC50) (FaDu cells; pHe 6.5): 5.55 ± 3.70
- ACR (oxic IC50/anoxic IC50) (FaDu cells; pHe 7.4): > 2
- Protein binding in culture medium with 5 or 10% FBS ([4]; 100 μM): not detectable
- fraction unbound at 6 h, 100 µM ([4]; bovine, fetal bovine serum (FBS), pH 7.4, FBS, read-out: Protein binding (bound) in FBS (converted)): 0.38
- IC50 ratio SiHa / SiHa/POR (fold lower IC50 in POR cell line) (SiHa and SiHa/POR cells): 2.67 ± 0.46 and 2.7
- solubility [5]: 24.8 mM
- pKa [6]: 4.16
- Effect of overexpression of BCRP or Pgp efflux transporters on sensitivity [7]: no effect
- Observed Ci/Ce ratio (SiHa cells [8]; pHe 6.5, approximate value quoted in text): ~ 0.7
- Observed Ci/Ce ratio (SiHa cells [8]; pHe 7.4, approximate value quoted in text): ~ 0.1
- Ci ratio (Ci at pHe 6.5/Ci at pHe 7.4) (SiHa cells [8]; aerobic SiHa suspensions, 5 min): 3.9 ± 1.3 fold
- Ci/Ce, pHe 6.5 Obs 5 min (SiHa cells [8]; aerobic SiHa suspensions, pHe 6.5, 5 min): 0.70 ± 0.03
- Ci/Ce, pHe 6.5 Obs 60 min (SiHa cells [8]; aerobic SiHa suspensions, pHe 6.5, 60 min): 0.75 ± 0.03
- Ci/Ce, pHe 7.4 Obs 5 min (SiHa cells [8]; aerobic SiHa suspensions, pHe 7.4, 5 min): 0.21 ± 0.08
- Ci/Ce, pHe 7.4 Obs 60 min (SiHa cells [8]; aerobic SiHa suspensions, pHe 7.4, 60 min): <0.1
